These results are taken from patent publication US20240279239A1, “COMPOUNDS AND METHODS FOR MODULATING SPLICING” (REMIX THERAPEUTICS INC., priority 2020, published 2024).

The structures appear in SMILES notation. Read-outs that look alike come from different tables or passages of the source.

Format in all cases: cell-based
One test deals with Target C. Description: RT-qPCR canonical junction panel assay, Target C. The settings on record: gene panel, read-out: Target C IC50 (decrease in CJ mRNA levels). The protocol:
(§1) Example 44: Exemplary splicing assay for monitoring expression levels of splice variants Compounds described herein were used to modulate RNA transcript abundance in cells. The expression of a target mRNA was measured by detecting the formation of an exon-exon junction in the canonical transcript (CJ). A compound mediated exon-inclusion event was detected by observing an increase in formation of a new junction with an alternative exon (AJ). Real-time qPCR assays were used to detect these splicing switches and interrogate the potency of various compounds towards different target genes. A high-throughput real time quantitative PCR (RT-qPCR) assay was developed to measure these two isoforms of the mRNA (CJ and AJ) for an exemplary gene, HTT, together with a control housekeeping gene, GAPDH or GUSB or PPIA, used for normalization. Briefly, the A673 or K562 cell line was treated with various compounds described herein (e.g., compounds of Formula (I)). After treatment, the levels of the HTT mRNA targets were determined from each sample of cell lysate by cDNA synthesis followed by qPCR.
(§2) The A673 cell line was cultured in DMEM with 10% FBS. Cells were diluted with full growth media and plated in a 96-well plate (15,000 cells in 100 µl media per well). The plate was incubated at 37° C. with 5% CO2 for 24 hours to allow cells to adhere. An 11-point 3-fold serial dilution of the compounds was made in DMSO then diluted in media in an intermediate plate. Compounds were transferred from the intermediate plate to the cell plate with the top dose at a final concentration of 10 uM in the well. Final DMSO concentration was kept at or below 0.25%. The cell plate was returned to the incubator at 37° C. with 5% CO2 for an additional 24 hours.
(§3) The K562 cell line was cultured in IMDM with 10% FBS. For K562, cells were diluted with full growth media and plated in either a 96-well plate (50,000 cells in 50 uL media per well) or a 384-well plate (8,000-40,000 cells in 45 uL media per well). An 11-point 3-fold serial dilution of the compounds were made in DMSO then diluted in media in an intermediate plate. Compound was transferred from the intermediate plate to the cell plate with the top dose at a final concentration of 10 uM in the well. Final DMSO concentration was kept at or below 0.25%. Final volume was 100 uL for 96-well plate and 50 uL for 384-well plate. The cell plate was then placed in an incubator at 37° C. with 5% CO2 for 24 hours.
(§4) The cells were then gently washed with 50 uL-100 uL cold PBS before proceeding to addition of lysis buffer. 30 uL-50 uL of room temperature lysis buffer with DNAse I (and optionally RNAsin) was added to each well. Cells were shaken/mixed thoroughly at room temperature for 5-10 minutes for lysis to take place and then 3 uL-5 uL of room temperature stop solution was added and wells were shaken/mixed again. After 2-5 minutes, the cell lysate plate was transferred to ice for RT-qPCR reaction setup. The lysates could also be frozen at ˜80° C. for later use.
(§5) In some cases, a direct lysis buffer was used. An appropriate volume of 3× lysis buffer (10 mM Tris, 150 mM NaCl, 1.5%-2.5% Igepal and 0.1-1 U/uL RNAsin, pH 7.4) was directly added to either K562 or A673 cells in media and mixed by pipetting 3 times. The plates were then incubated at room temperature with shaking/rocking for 20-50 minutes to allow for lysis to take place. After this time, the cell lysate plate was transferred to ice to set up for the RT-qPCR reactions. The lysates could also be frozen at −80° C. for later use.
(§6) To set up 10 uL RT-qPCR reactions, cell lysates were transferred to 384-well qPCR plates containing the master mix according to the table below. The plates were sealed, gently vortexed, and spun down before the run. The volumes were adjusted accordingly in some instances where the reaction was carried in 20 uL. The table below summarizes the components of the RT-qPCR reactions: […]

Test [1] relates to HTT. Description: RT-qPCR splicing assay for HTT mRNA isoforms (canonical junction CJ and alternative junction AJ). The settings on record: A673 or K562 cell line, 24 hours treatment. The protocol:
as §1, §2, §3, §4, §5, §6

In test [2] the test system is HTT. Description: RT-qPCR canonical junction panel assay, HTT. The settings on record: gene panel, read-out: HTT IC50 (decrease in CJ mRNA levels). The protocol:
as §1, §2, §3, §4, §5, §6
In general terms: In qPCR the cycle at which signal appears reflects the starting amount.

The subject of the next test is SMN2. Description: RT-qPCR canonical junction panel assay, SMN2. The following applies: gene panel, read-out: SMN2 IC50 (decrease in CJ mRNA levels). The protocol: as §1, §2, §3, §4, §5, §6
Where [3] appears, read: decrease in CJ mRNA levels, read-out: HTT CJ AC50.
Setting [4] is: increase in AJ mRNA, read-out: HTT AJ AC50.

Usually IC50 stands for the midpoint of a concentration-inhibition curve. By AC50 is commonly meant the midpoint of the concentration-response curve, whichever way the signal moves. For `Cc1cc(-c2nc3ncn(C4CCNCC4)c(=O)c3s2)cc2cn(C)nc12` [Compound 233, 2-(2,7-dimethyl-2H-indazol-5-yl)-6-(piperidin-4-yl)thiazolo[4,5-d]pyrimidin-7(6H)-one], the values for the half-maximal inhibitory concentration (IC50) in the test with Target C, in the test with HTT [2] and in the test with SMN2 were 100 to 1000 nM, less than 100 nM and less than 100 nM, respectively. Besides, the concentration at half-maximal activity (AC50) in the test with HTT [1] (setting [3]) and in the test with HTT [1] (setting [4]) was less than 100 nM in each case.
In the case of `Cc1cn2cc(-c3nn4c(=O)cc(N(C)C5CC(C)(C)NC(C)(C)C5)nc4s3)cc(F)c2n1` [Compound 215, 2-(8-fluoro-2-methylimidazo[1,2-α]pyridin-6-yl)-7-(methyl(2,2,6,6-tetramethylpiperidin-4-yl)amino)-5H-[1,3,4]thiadiazolo[3,2-α]pyrimidin-5-one], the results for the IC50 with Target C, with HTT [2] and in the test with SMN2 were 1000 to 10000 nM, 1000 to 10000 nM and 100 to 1000 nM, respectively. Further, the half-maximal activity concentration (AC50) in the test on HTT [1] (setting [3]) and in the test on HTT [1] (setting [4]) was 1000 to 10000 nM each time.
As for `Cc1cn2cc(-c3nn4c(=O)cc(N5CCNCC5)nc4s3)cc(F)c2n1` [Compound 214, 2-(8-fluoro-2-methylimidazo[1,2-α]pyridin-6-yl)-7-(piperazin-1-yl)-5H-[1,3,4]thiadiazolo[3,2-α]pyrimidin-5-one], the 50% inhibitory concentration (IC50) with Target C is greater than 10000 nM; with HTT [2], 1000 to 10000 nM; in the test on SMN2 it was 100 to 1000 nM. The figures for the AC50 in the test with HTT [1] (setting [3]) and in the test on HTT [1] (setting [4]) were 1000 to 10000 nM and greater than 10000 nM, respectively.
Take `Cc1cn2cc(-c3nn4c(=O)cc(N5CCN(C)C6(CC6)C5)nc4s3)cc(F)c2n1` [Compound 218, 2-(8-fluoro-2-methylimidazo[1,2-α]pyridin-6-yl)-7-(4-methyl-4,7-diazaspiro[2.5]octan-7-yl)-5H-[1,3,4]thiadiazolo[3,2-α]pyrimidin-5-one]: the IC50 in the test on Target C, in the test with HTT [2] and in the test on SMN2 was 1000 to 10000 nM in each case. The AC50 in the test on HTT [1] (setting [3]) and in the test on HTT [1] (setting [4]) was 1000 to 10000 nM in each case.
In the case of `Cc1cn2cc(-c3cc(=O)n4nc(N5CCN(C)CC5)sc4n3)cc(F)c2n1` [Compound 159, 7-(8-fluoro-2-methylimidazo[1,2-α]pyridin-6-yl)-2-(4-methylpiperazin-1-yl)-5H-[1,3,4]thiadiazolo[3,2-α]pyrimidin-5-one], the IC50 in the test on Target C, in the test on HTT [2] and with SMN2 was 1000 to 10000 nM in each case. Also, the concentration at half-maximal activity (AC50) with HTT [1] (setting [3]) and in the test on HTT [1] (setting [4]) was 1000 to 10000 nM in each case.
For `Cc1cc(-c2nn3c(=O)cc(N4CCN(C)CC4)nc3s2)cc2cn(C)nc12` [Compound 210, 2-(2,7-dimethyl-2H-indazol-5-yl)-7-(4-methylpiperazin-1-yl)-5H-[1,3,4]thiadiazolo[3,2-α]pyrimidin-5-one], the IC50 in the test with Target C, in the test on HTT [2] and in the test with SMN2 was 1000 to 10000 nM in each case. The half-maximal activity concentration (AC50) with HTT [1] (setting [3]) and in the test with HTT [1] (setting [4]) was 1000 to 10000 nM in each case.
Take `Cc1cn2cc(-c3cn4c(=O)cc(N5CCNC6(CC6)C5)nc4s3)cc(F)c2n1` [Compound 208, 2-(8-fluoro-2-methylimidazo[1,2-α]pyridin-6-yl)-7-(4,7-diazaspiro[2.5]octan-7-yl)-5H-thiazolo[3,2-α]pyrimidin-5-one]: the concentration for half-maximal inhibition (IC50) with Target C, in the test with HTT [2] and with SMN2 was 1000 to 10000 nM each time. Besides, the concentration at half-maximal activity (AC50) in the test with HTT [1] (setting [3]) and in the test on HTT [1] (setting [4]) was 1000 to 10000 nM throughout.
As to `Cc1cn2cc(-c3cc4ncn(C5CCNCC5)c(=O)c4s3)cc(F)c2n1` [Compound 235, 6-(8-fluoro-2-methylimidazo[1,2-α]pyridin-6-yl)-3-(piperidin-4-yl)thieno[3,2-d]pyrimidin-4(3H)-one], the IC50 with Target C was 100 to 1000 nM; in the test with HTT [2], less than 100 nM; in the test with SMN2 it was less than 100 nM. Also, the AC50 in the test with HTT [1] (setting [3]) and with HTT [1] (setting [4]) was less than 100 nM throughout.
In the case of `Cc1cn2cc(-n3cnc4nc(N5CCNCC5)sc4c3=O)cc(C(F)(F)F)c2n1` [Compound 229, 6-(2-methyl-8-(trifluoromethyl)imidazo[1,2-α]pyridin-6-yl)-2-(piperazin-1-yl)thiazolo[4,5-d]pyrimidin-7(6H)-one], the half-inhibitory concentration (IC50) with Target C, with HTT [2] and with SMN2 was greater than 10000 nM each time. In addition, the AC50 in the test with HTT [1] (setting [3]) and in the test with HTT [1] (setting [4]) was greater than 10000 nM each time.
As for `Cc1cc(-c2cc(=O)n3nc(N4CCN(C)CC4)sc3n2)cc2cn(C)nc12` [Compound 157], the IC50 with Target C, in the test on HTT [2] and in the test on SMN2 was greater than 10000 nM throughout. The AC50 in the test with HTT [1] (setting [3]) and in the test with HTT [1] (setting [4]) was greater than 10000 nM throughout.
As for `Cc1cn2cc(-n3cnc4nc(N5CCNCC5)sc4c3=O)cc(F)c2n1` [Compound 226, 6-(8-fluoro-2-methylimidazo[1,2-α]pyridin-6-yl)-2-(piperazin-1-yl)thiazolo[4,5-d]pyrimidin-7(6H)-one], the IC50 in the test on Target C, with HTT [2] and in the test on SMN2 was 100 to 1000 nM each time. For the same compound, the AC50 in the test on HTT [1] (setting [3]) and with HTT [1] (setting [4]) was 100 to 1000 nM throughout.
Take `Cc1cc(-c2cc(=O)n3cc(N4CCN(C)CC4)sc3n2)cc2cn(C)nc12` [Compound 109, 7-(2,7-dimethyl-2H-indazol-5-yl)-2-(4-methylpiperazin-1-yl)-5H-thiazolo[3,2-α]pyrimidin-5-one]: the IC50 with Target C, in the test on HTT [2] and in the test on SMN2 was greater than 10000 nM each time. Also, the AC50 with HTT [1] (setting [3]) and in the test with HTT [1] (setting [4]) was greater than 10000 nM throughout.
Regarding `Cc1cn2cc(-c3cc(=O)n4cc(N5CCNC6(CC6)C5)sc4n3)cc(F)c2n1` [Compound 207, 7-(8-fluoro-2-methylimidazo[1,2-α]pyridin-6-yl)-2-(4,7-diazaspiro[2.5]octan-7-yl)-5H-thiazolo[3,2-α]pyrimidin-5-one], the figures for the half-maximal inhibitory concentration (IC50) with Target C, in the test with HTT [2] and in the test on SMN2 were greater than 10000 nM, greater than 10000 nM and 100 to 1000 nM, respectively. Further, the AC50 with HTT [1] (setting [3]) and with HTT [1] (setting [4]) was greater than 10000 nM in each case.
Take `Cc1cc(-c2cc3ncn(C4CCN(C)CC4)c(=O)c3s2)cc2cn(C)nc12` [Compound 237, 6-(2,7-dimethyl-2H-indazol-5-yl)-3-(1-methylpiperidin-4-yl)thieno[3,2-d]pyrimidin-4(3H)-one]: the half-inhibitory concentration (IC50) in the test with Target C was 1000 to 10000 nM; with HTT [2], 100 to 1000 nM; in the test on SMN2, less than 100 nM. Also, the half-maximal activity concentration (AC50) with HTT [1] (setting [3]) and in the test on HTT [1] (setting [4]) was 100 to 1000 nM each time.
Turning to `Cc1cc(-c2cc3ncn(C4CCNCC4)c(=O)c3s2)cc2cn(C)nc12` [Compound 236, 6-(2,7-dimethyl-2H-indazol-5-yl)-3-(piperidin-4-yl)thieno[3,2-d]pyrimidin-4(3H)-one], the IC50 in the test with Target C is 100 to 1000 nM; in the test with HTT [2], less than 100 nM; with SMN2, less than 100 nM. Moreover, the half-maximal activity concentration (AC50) with HTT [1] (setting [3]) was less than 100 nM; with HTT [1] (setting [4]) it was 100 to 1000 nM.
For the compound `Cc1cn2cc(-c3cc(=O)n4nc(N5CCNC6(CC6)C5)sc4n3)cc(F)c2n1` [Compound 209, 7-(8-fluoro-2-methylimidazo[1,2-α]pyridin-6-yl)-2-(4,7-diazaspiro[2.5]octan-7-yl)-5H-[1,3,4]thiadiazolo[3,2-α]pyrimidin-5-one], the concentration for half-maximal inhibition (IC50) in the test on Target C, in the test on HTT [2] and in the test with SMN2 was 1000 to 10000 nM each time. Also, the AC50 in the test with HTT [1] (setting [3]) and in the test with HTT [1] (setting [4]) was 1000 to 10000 nM in each case.
